From ChEMBL document CHEMBL4402548, “Discovery of novel tRNA-amino acid dual-site inhibitors against threonyl-tRNA synthetase by fragment-based target hopping” (Eur J Med Chem, 2020) come the findings set out here.

Converted amounts (≈) assume the structure as drawn.

The subject of assay [1] is Salmonella enterica. Put plainly: Binding affinity to Salmonella enterica Threonyl-tRNA synthetase assessed as change in melting temperature at 0.5 mM incubated for 10 mins by SYPRO orange dye-based thermal shift assay.
Assay [2] relates to Salmonella enterica. Nature of the assay: Inhibition of Salmonella enterica Threonyl-tRNA synthetase assessed as reduction in aminoacylation activity at 100 uM using L-threonine as substrate incubated for 3 hrs by Kinase-glo luminescence assay relative to control.
Assay [3] in a line: Inhibition of Salmonella enterica Threonyl-tRNA synthetase assessed as reduction in aminoacylation activity using L-threonine as substrate in presence of incubated for 3 hrs by Kinase-glo luminescence assay.
In assay [4] the test system is Staphylococcus aureus. Nature of the assay: Antibacterial activity against Staphylococcus aureus ATCC 29213 by visual method. The format is functional.
In assay [5] the test system is Staphylococcus aureus. Put plainly: Antibacterial activity against methicillin-resistant Staphylococcus aureus R3708 by visual method. The format is functional.
The next assay relates to Enterococcus faecalis. Put plainly: Antibacterial activity against Enterococcus faecalis ATCC 29212 by visual method. In kind it is functional.
For another assay, the system named is Escherichia coli. Put plainly: Antibacterial activity against Escherichia coli ATCC 25922 by visual method. In kind it is functional.
Assay [6] deals with Salmonella enterica. Nature of the assay: Antibacterial activity against Salmonella enterica 87 by visual method. In kind it is functional.
A further assay concerns Pseudomonas aeruginosa. Nature of the assay: Antibacterial activity against Pseudomonas aeruginosa ATCC 27853 by visual method. In kind it is functional.
Assay [7] can be described thus: Binding affinity to Salmonella enterica Threonyl-tRNA synthetase at 200 uM by isothermal titration calorimetry.

For the compound `COc1cc2ncn(C/C=C/CNC(=O)[C@@H](N)[C@@H](C)O)c(=O)c2cc1OC`, the ΔTm in the assay with Salmonella enterica [1] was found to be 1.5 °C. Besides, the inhibition in the assay on Salmonella enterica [2] is 0%.

On to `C[C@@H](O)[C@H](N)C(=O)N1CCC(Cn2cnc3cc(Br)c(Cl)cc3c2=O)CC1`, for which the ΔTm in the assay with Salmonella enterica [1] was 12.4 °C. For the same compound, the inhibition in the assay on Salmonella enterica [2] stood at 23%.

Regarding `C[C@@H](O)[C@H](N)C(=O)NC/C=C/Cn1cnc2cc(Br)c(Cl)cc2c1=O`, the ΔTm with Salmonella enterica [1] was 22.5 °C. For the same compound, the inhibition in the assay on Salmonella enterica [2] is 99%. Further, in assay [3], the IC50 worked out at 3.2 µM. Besides, the MIC against Staphylococcus aureus [4] stood at 32 µg/mL (≈ 74.5 µM); against Staphylococcus aureus [5], 64 µg/mL (≈ 149 µM); against Enterococcus faecalis it was 64 µg/mL (≈ 149 µM); in the assay with Escherichia coli, 32 µg/mL (≈ 74.5 µM); in the assay on Salmonella enterica [6], 16 µg/mL (≈ 37.2 µM); against Pseudomonas aeruginosa it was 32 µg/mL (≈ 74.5 µM).

As for `C[C@@H](O)[C@H](N)C(=O)N1CCC(C(=O)Cn2cnc3cc(Br)c(Cl)cc3c2=O)CC1`, the ΔTm in the assay with Salmonella enterica [1] was 0 °C. Moreover, in the assay on Salmonella enterica [2], the inhibition came to 0%.

Turning to `C[C@@H](O)[C@H](N)C(=O)NS(=O)(=O)c1cccc(-c2ccc3[nH]ncc3c2)c1`, the ΔTm in the assay on Salmonella enterica [1] was determined as 29.5 °C. In the assay with Salmonella enterica [2], the inhibition is 100%. Further, the IC50 in assay [3] turned out to be 0.13 µM. Moreover, the MIC against Staphylococcus aureus [4], against Staphylococcus aureus [5], against Enterococcus faecalis, in the assay with Escherichia coli, with Salmonella enterica [6] and against Pseudomonas aeruginosa was over 256 µg/mL each time.

As for `C[C@@H](O)[C@H](N)C(=O)NC/C=C/Cn1cnc2cc(Br)c(Br)cc2c1=O`, the ΔTm with Salmonella enterica [1] stood at 20.3 °C. Moreover, the inhibition in the assay on Salmonella enterica [2] amounted to 100%. Also, the IC50 in assay [3] amounted to 2.4 µM.

For the compound `C[C@@H](O)[C@H](N)C(=O)OCCCCn1cnc2cc(Br)c(Cl)cc2c1=O`, the ΔTm with Salmonella enterica [1] came to 10.2 °C. For the same compound, the inhibition with Salmonella enterica [2] is 42%.

With `C[C@@H](O)[C@H](N)C(=O)NC/C=C/Cn1cnc2cc(Cl)ncc2c1=O`, the ΔTm in the assay on Salmonella enterica [1] stood at 8.6 °C. Further, the inhibition in the assay on Salmonella enterica [2] was found to be 34%.

With `C[C@@H](O)[C@H](N)C(=O)OCCCCCCn1cnc2cc(Br)c(Cl)cc2c1=O`, the ΔTm in the assay on Salmonella enterica [1] was found to be 9.9 °C. Further, the inhibition with Salmonella enterica [2] was 32%.

As to `C[C@@H](O)[C@H](N)C(=O)NCCCCCn1cnc2cc(Br)c(Cl)cc2c1=O`, in the assay on Salmonella enterica [1], the ΔTm stood at 14 °C. Besides, the inhibition with Salmonella enterica [2] came to 87%. The IC50 in [3] stood at 29.7 µM.

With `COc1cc2c(=O)n(C/C=C/CNC(=O)[C@@H](N)[C@@H](C)O)cnc2cn1`, in the assay on Salmonella enterica [1], the ΔTm was determined as 9.6 °C. Besides, in the assay on Salmonella enterica [2], the inhibition came to 17%.

As for `CC1(C)S[C@@H]2[C@H](NC(=O)[C@H](N)c3ccccc3)C(=O)N2[C@H]1C(=O)O` [AMPICILLIN], the MIC in the assay with Escherichia coli, against Salmonella enterica [6] and against Pseudomonas aeruginosa was 1 µg/mL (≈ 2.86 µM) in each case.

In the case of `C[C@@H](O)[C@H](N)C(=O)NC/C=C/Cn1cnc2cc3c(cc2c1=O)OCO3`, the ΔTm in the assay on Salmonella enterica [1] came to 9.5 °C. In addition, in the assay with Salmonella enterica [2], the inhibition stood at 5%.

Regarding `C[C@@H](O)[C@H](N)C(=O)NC/C=C/Cn1cnc2cc(F)c(F)cc2c1=O`, in the assay on Salmonella enterica [1], the shift in melting temperature (ΔTm) was 17.2 °C. In addition, the inhibition with Salmonella enterica [2] was 77%. For the same compound, in assay [3], the IC50 was 39.4 µM.

For the compound `C[C@@H](O)[C@H](N)C(=O)NC/C=C/Cn1cnc2cc(Cl)c(F)cc2c1=O`, in the assay on Salmonella enterica [1], the thermal shift (ΔTm) was 18.8 °C. Moreover, the inhibition with Salmonella enterica [2] is 93%. The IC50 in [3] is 9.7 µM.

For `C[C@@H](O)[C@H](N)C(=O)NC/C=C/Cn1cnc2cnc(F)cc2c1=O`, the ΔTm in the assay with Salmonella enterica [1] was found to be 12 °C. The inhibition in the assay on Salmonella enterica [2] was 36%.

As to `CN[C@H](CC(C)C)C(=O)N[C@H]1C(=O)N[C@@H](CC(N)=O)C(=O)N[C@H]2C(=O)N[C@H]3C(=O)N[C@H](C(=O)N[C@H](C(=O)O)c4cc(O)cc(O)c4-c4cc3ccc4O)[C@H](O)c3ccc(c(Cl)c3)Oc3cc2cc(c3O[C@@H]2O[C@H](CO)[C@@H](O)[C@H](O)[C@H]2O[C@H]2C[C@](C)(N)[C@H](O)[C@H](C)O2)Oc2ccc(cc2Cl)[C@H]1O` [VANCOMYCIN], the MIC with Enterococcus faecalis was determined as 2 µg/mL (≈ 1.38 µM).

`C[C@@H](O)[C@H](N)C(=O)NC/C=C/Cn1cnc2cc(C(F)(F)F)ccc2c1=O`: the ΔTm with Salmonella enterica [1] came out at 11.9 °C. For the same compound, the inhibition in the assay on Salmonella enterica [2] came out at 21%.

`C[C@@H](O)[C@H](N)C(=O)NC/C=C/Cn1cnc2cc(Cl)c([N+](=O)[O-])cc2c1=O`: in the assay with Salmonella enterica [1], the ΔTm turned out to be 0.5 °C. Moreover, the inhibition in the assay with Salmonella enterica [2] was found to be 0%.

Regarding `O=C(CC1NCCCC1O)Cn1cnc2cc(Br)c(Cl)cc2c1=O` (stereo unspecified) [HALOFUGINONE], in the assay with Salmonella enterica [1], the ΔTm was -1.4 °C. The inhibition in the assay with Salmonella enterica [2] was found to be 5%. Further, the MIC in the assay with Staphylococcus aureus [4] is 64 µg/mL (≈ 154 µM); in the assay on Staphylococcus aureus [5], 64 µg/mL (≈ 154 µM); in the assay with Enterococcus faecalis, 128 µg/mL (≈ 309 µM); against Escherichia coli it was 64 µg/mL (≈ 154 µM); in the assay with Salmonella enterica [6] it was 64 µg/mL (≈ 154 µM); against Pseudomonas aeruginosa, 64 µg/mL (≈ 154 µM).

Take `C[C@@H](O)[C@H](N)C(=O)OCCCCCn1cnc2cc(Br)c(Cl)cc2c1=O`: in the assay on Salmonella enterica [1], the ΔTm was 9.8 °C. For the same compound, in the assay with Salmonella enterica [2], the inhibition worked out at 30%.

As for `C[C@@H](O)[C@H](N)C(=O)NC/C=C/Cn1cnc2cc3c(cc2c1=O)OCCO3`, the ΔTm in the assay on Salmonella enterica [1] was determined as 0.6 °C. In addition, in the assay with Salmonella enterica [2], the inhibition was determined as 0%.

On to `C[C@@H](O)[C@H](N)C(=O)NC/C=C/Cn1cnc2cnc(Cl)cc2c1=O`, for which the ΔTm with Salmonella enterica [1] was determined as 14.9 °C. Besides, in the assay on Salmonella enterica [2], the inhibition turned out to be 68%. Also, the IC50 in assay [3] was found to be 49.7 µM.

As to `C[C@@H](O)[C@H](N)C(=O)NC/C=C/Cn1cnc2ccccc2c1=O`, the ΔTm in the assay with Salmonella enterica [1] is 9.2 °C. Also, the inhibition in the assay on Salmonella enterica [2] worked out at 15%.

For the compound `Cc1cc2ncn(C/C=C/CNC(=O)[C@@H](N)[C@@H](C)O)c(=O)c2cc1C`, the ΔTm in the assay on Salmonella enterica [1] is 10.6 °C. Moreover, in the assay with Salmonella enterica [2], the inhibition worked out at 7%.

In the case of `C[C@@H](O)[C@H](N)C(=O)NC/C=C/Cn1cnc2cc(Cl)c(Cl)cc2c1=O`, the ΔTm in the assay with Salmonella enterica [1] turned out to be 23.7 °C. The inhibition in the assay on Salmonella enterica [2] came out at 101%. In addition, the IC50 in [3] was 1.4 µM. The same compound came in with a Kd in assay [7] of 1.36 µM. Further, the MIC in the assay on Staphylococcus aureus [4] was found to be 32 µg/mL (≈ 83.1 µM); against Staphylococcus aureus [5], 32 µg/mL (≈ 83.1 µM); with Enterococcus faecalis it was 32 µg/mL (≈ 83.1 µM); against Escherichia coli, 16 µg/mL (≈ 41.5 µM); in the assay with Salmonella enterica [6], 16 µg/mL (≈ 41.5 µM); against Pseudomonas aeruginosa it was 32 µg/mL (≈ 83.1 µM).

In the case of `C[C@@H](O)[C@H](N)C(=O)NC/C=C/Cn1cnc2cc3ccccc3cc2c1=O`, the ΔTm in the assay on Salmonella enterica [1] stood at 16.9 °C. Further, in the assay with Salmonella enterica [2], the inhibition stood at 70%. The IC50 in [3] amounted to 55.5 µM.

Turning to `C[C@@H](O)[C@H](N)C(=O)NCCCCCCn1cnc2cc(Br)c(Cl)cc2c1=O`, the thermal shift (ΔTm) with Salmonella enterica [1] is 12.4 °C. In addition, the inhibition with Salmonella enterica [2] came to 96%. Further, the IC50 in assay [3] came to 7.3 µM.

Regarding `C[C@@H](O)[C@H](N)C(=O)OC/C=C/Cn1cnc2cc(Br)c(Cl)cc2c1=O`, in the assay with Salmonella enterica [1], the ΔTm amounted to 15.7 °C. Besides, in the assay on Salmonella enterica [2], the inhibition came to 96%. The concentration for half-maximal inhibition (IC50) in assay [3] was found to be 9.6 µM.

For `C[C@@H](O)[C@H](N)C(=O)OCCCn1cnc2cc(Br)c(Cl)cc2c1=O`, the ΔTm in the assay with Salmonella enterica [1] was 7.5 °C. For the same compound, the inhibition in the assay on Salmonella enterica [2] came out at 0%.
